Assay results taken from patent US20250256096A1 (priority 2022, published 2025).
Several values for one entry are separate records, joined by “and”; a condition that tells them apart may be missing. Equal values may be shown once. Read-outs that look alike come from different tables or passages of the source.

System: cervical vagus nerve
Assay type: in vivo, Adult male Lewis rats
Conditions: for vagal nerve activity as detected by spike count analysis of electroneurograms: application directly to the cervical vagus nerve; for vagal nerve activity as detected by spike count analysis of electroneurograms / nerve firing of the main cervical vagus nerve: result in words; for nerve firing of the main cervical vagus nerve: intradermal application to trigeminal dermatomes on the forehead
[1] = intradermal application on forehead near trigeminal nerve endings, high (100 nM) concentration, mean +/- SEM

Row | Molecule | vagal nerve activity as detected by spike count analysis of electroneurograms | cervical vagus nerve average spike count (high (100 nM) concentration applied directly on the cervical vagus nerve, mean +/- SEM) | cervical vagus nerve average spike count [1] | nerve firing of the main cervical vagus nerve | cervical vagus nerve average spike count (low (10 nM) concentration applied directly on the cervical vagus nerve, mean +/- SEM, POST 60-s segment) | cervical vagus nerve average spike count (intradermal application on forehead near trigeminal nerve endings, low (10 nM) concentration, mean +/- SEM) | effect on spike count (low (10 nM) or high (100 nM) concentrations directly on the cervical vagus nerve, data not shown) | cervical vagus nerve average spike count (rat, in vivo)
1 | COc1cc(CNC(=O)CCCC/C=C/C(C)C)ccc1O [Capsaicin, capsaicin] | increased | 14.5+/−0.7 spikes/second | 13.5+/−0.5 spikes/second | activated | 7.6+/−0.7 spikes/second | – | – | –
2 | CC(C)C[C@H](NC(=O)c1cc2ccccc2s1)C(=O)N1CCN(C(=O)[C@H](CO)NS(=O)(=O)c2ccc(Cl)cc2Cl)CC1 [GSK1016790A] | increased | – | 13.8+/−1.0 spikes/second | activated | – | 7.0+/−0.5 spikes/second | no effect | –
3 | WS-12 | increased | – | – | activated | – | – | – | –
4 | capsaicin | – | – | – | – | – | – | – | 11.2+/−0.6 spikes/second and 17.7+/−0.8 spikes/second and 9.6+/−0.5 spikes/second
